Results published in patent publication US8840866B2, “Styrylpyridine derivatives and their use for binding and imaging amyloid plaques” (The Trustees of the University of Pennsylvania, priority 2006, dated 2014).

Experiment: Organ distribution in normal ICR mice after iv injection of radiolabeled tracer
Assay type: in vivo
Conditions: [125I]-labeled tracer
Experimental: The mice (n=3 for each time point) were sacrificed by cervical dislocation at designated time-points post injection. The organs of interest were removed and weighed, and the radioactivity was counted with an automatic gamma counter. The percentage dose per organ was calculated by a comparison of the tissue counts to suitably diluted aliquots of the injected material. The total activity of the blood was calculated under the assumption that it is 7% of the total body weight. The % dose/g of samples was calculated by comparing the sample counts with the count of the diluted initial dose.

| Structure (SMILES) | Biodistribution: Blood (2 min) | Biodistribution: Brain (2 min) | Biodistribution: Heart (2 min) | Biodistribution: Kidney (2 min) | Biodistribution: Liver (2 min) | Biodistribution: Lung (2 min) | Biodistribution: Muscle (2 min) | Biodistribution: Skin (2 min) | Biodistribution: Spleen (2 min) | Biodistribution: Thyroid (2 min) | Biodistribution: Blood (30 min) | Biodistribution: Brain (30 min) | Biodistribution: Heart (30 min) | Biodistribution: Kidney (30 min) | Biodistribution: Liver (30 min) | Biodistribution: Lung (30 min) | Biodistribution: Muscle (30 min) | Biodistribution: Skin (30 min) | Biodistribution: Spleen (30 min) | Biodistribution: Thyroid (30 min) | further results |
| --- | --- | --- | --- | --- | --- | --- | --- | --- | --- | --- | --- | --- | --- | --- | --- | --- | --- | --- | --- | --- | --- |
| CN(C)c1ccc(/C=C/c2cnc(OCCOCCOCCF)c(I)c2)cc1 [[^125I]13a, (E)-(5-Iodo-6-{2-[2-(2-fluoroethoxy)ethoxy]ethoxy}pyridin-3-yl)-2-(4-dimethylaminophenyl)-ethylene] | 2.70 ± 0.58 % dose/g | 4.03 ± 0.43 % dose/g | 12.76 ± 1.24 % dose/g | 16.62 ± 1.96 % dose/g | 22.15 ± 4.34 % dose/g | 10.08 ± 2.15 % dose/g | 0.90 ± 0.20 % dose/g | 0.54 ± 0.05 % dose/g | 4.47 ± 1.28 % dose/g | 3.89 ± 0.67 % dose/g | 2.05 ± 0.18 % dose/g | 1.93 ± 0.18 % dose/g | 1.63 ± 0.03 % dose/g | 3.32 ± 0.11 % dose/g | 9.54 ± 1.30 % dose/g | 2.50 ± 0.14 % dose/g | 1.00 ± 0.08 % dose/g | 1.47 ± 0.26 % dose/g | 1.42 ± 0.05 % dose/g | 16.23 ± 11.75 % dose/g | Biodistribution: Blood (1 hr): 1.65 ± 0.45 % dose/g; Biodistribution: Brain (1 hr): 0.68 ± 0.17 % dose/g; Biodistribution: Heart (1 hr): 0.97 ± 0.16 % dose/g; Biodistribution: Kidney (1 hr): 2.30 ± 0.54 % dose/g; Biodistribution: Liver (1 hr): 5.34 ± 2.22 % dose/g; Biodistribution: Lung (1 hr): 1.62 ± 0.46 % dose/g; Biodistribution: Muscle (1 hr): 0.59 ± 0.13 % dose/g; Biodistribution: Skin (1 hr): 1.59 ± 0.68 % dose/g; Biodistribution: Spleen (1 hr): 0.99 ± 0.47 % dose/g; Biodistribution: Thyroid (1 hr): 24.19 ± 8.26 % dose/g; Biodistribution: Blood (2 hr): 1.45 ± 0.41 % dose/g; Biodistribution: Brain (2 hr): 0.26 ± 0.04 % dose/g; Biodistribution: Heart (2 hr): 0.73 ± 0.17 % dose/g; Biodistribution: Kidney (2 hr): 1.71 ± 0.24 % dose/g; Biodistribution: Liver (2 hr): 5.62 ± 1.31 % dose/g; Biodistribution: Lung (2 hr): 1.33 ± 0.39 % dose/g; Biodistribution: Muscle (2 hr): 0.53 ± 0.08 % dose/g; Biodistribution: Skin (2 hr): 1.23 ± 0.41 % dose/g; Biodistribution: Spleen (2 hr): 0.79 ± 0.27 % dose/g; Biodistribution: Thyroid (2 hr): 60.76 ± 6.09 % dose/g |
| CNc1ccc(/C=C/c2cnc(OCCO)c(I)c2)cc1 [[^125I]16b, (E)-[5-Iodo-6-(2-hydroxyethoxy)pyridin-3-yl]-2-(4-methylaminophenyl)-ethylene] | 4.14 ± 0.41 % dose/g | 8.04 ± 0.82 % dose/g | 7.16 ± 1.16 % dose/g | 11.51 ± 1.48 % dose/g | 20.84 ± 2.38 % dose/g | 7.43 ± 1.21 % dose/g | 1.15 ± 0.38 % dose/g | 0.95 ± 0.09 % dose/g | 4.08 ± 0.68 % dose/g | 6.31 ± 1.59 % dose/g | 3.08 ± 0.35 % dose/g | 0.88 ± 0.30 % dose/g | 1.50 ± 0.18 % dose/g | 3.73 ± 0.75 % dose/g | 12.57 ± 3.03 % dose/g | 2.67 ± 0.46 % dose/g | 0.91 ± 0.06 % dose/g | 1.86 ± 0.50 % dose/g | 1.34 ± 0.29 % dose/g | 17.23 ± 14.23 % dose/g | Biodistribution: Blood (1 hr): 1.81 ± 0.56 % dose/g; Biodistribution: Brain (1 hr): 0.26 ± 0.03 % dose/g; Biodistribution: Heart (1 hr): 0.88 ± 0.30 % dose/g; Biodistribution: Kidney (1 hr): 2.16 ± 0.08 % dose/g; Biodistribution: Liver (1 hr): 5.62 ± 0.68 % dose/g; Biodistribution: Lung (1 hr): 1.76 ± 0.32 % dose/g; Biodistribution: Muscle (1 hr): 0.42 ± 0.08 % dose/g; Biodistribution: Skin (1 hr): 1.29 ± 0.51 % dose/g; Biodistribution: Spleen (1 hr): 0.87 ± 0.37 % dose/g; Biodistribution: Thyroid (1 hr): 36.69 ± 37.17 % dose/g; Biodistribution: Blood (2 hr): 1.96 ± 0.14 % dose/g; Biodistribution: Brain (2 hr): 0.15 ± 0.02 % dose/g; Biodistribution: Heart (2 hr): 0.76 ± 0.03 % dose/g; Biodistribution: Kidney (2 hr): 1.53 ± 0.20 % dose/g; Biodistribution: Liver (2 hr): 3.41 ± 0.20 % dose/g; Biodistribution: Lung (2 hr): 1.58 ± 0.10 % dose/g; Biodistribution: Muscle (2 hr): 0.38 ± 0.02 % dose/g; Biodistribution: Skin (2 hr): 1.43 ± 0.10 % dose/g; Biodistribution: Spleen (2 hr): 1.08 ± 0.15 % dose/g; Biodistribution: Thyroid (2 hr): 99.88 ± 69.45 % dose/g |
| CNc1ccc(/C=C/c2cnc(OCCOCCOCCF)c(I)c2)cc1 [[^125I]13b, (E)-(5-Iodo-6-{2-[2-(2-fluoroethoxy)ethoxy]ethoxy}pyridin-3-yl)-2-(4-methylaminophenyl)-ethylene] | 4.37 ± 1.07 % dose/g | 6.22 ± 1.01 % dose/g | 9.85 ± 1.78 % dose/g | 9.03 ± 6.81 % dose/g | 26.24 ± 4.47 % dose/g | 6.85 ± 0.27 % dose/g | 1.04 ± 0.25 % dose/g | 1.48 ± 0.07 % dose/g | 4.41 ± 1.05 % dose/g | 5.74 ± 0.42 % dose/g | 3.83 ± 1.11 % dose/g | 1.23 ± 0.13 % dose/g | 2.54 ± 0.37 % dose/g | 3.40 ± 0.76 % dose/g | 11.47 ± 2.10 % dose/g | 3.01 ± 0.96 % dose/g | 1.11 ± 0.34 % dose/g | 2.95 ± 0.81 % dose/g | 2.49 ± 0.75 % dose/g | 24.09 ± 27.44 % dose/g | Biodistribution: Blood (1 hr): 2.88 ± 0.28 % dose/g; Biodistribution: Brain (1 hr): 0.62 ± 0.17 % dose/g; Biodistribution: Heart (1 hr): 1.75 ± 0.26 % dose/g; Biodistribution: Kidney (1 hr): 2.81 ± 0.70 % dose/g; Biodistribution: Liver (1 hr): 7.70 ± 1.22 % dose/g; Biodistribution: Lung (1 hr): 2.37 ± 0.29 % dose/g; Biodistribution: Muscle (1 hr): 0.85 ± 0.06 % dose/g; Biodistribution: Skin (1 hr): 2.46 ± 0.16 % dose/g; Biodistribution: Spleen (1 hr): 1.75 ± 0.33 % dose/g; Biodistribution: Thyroid (1 hr): 38.09 ± 6.37 % dose/g; Biodistribution: Blood (2 hr): 2.21 ± 0.73 % dose/g; Biodistribution: Brain (2 hr): 0.26 ± 0.01 % dose/g; Biodistribution: Heart (2 hr): 1.22 ± 0.28 % dose/g; Biodistribution: Kidney (2 hr): 1.86 ± 0.36 % dose/g; Biodistribution: Liver (2 hr): 6.25 ± 1.79 % dose/g; Biodistribution: Lung (2 hr): 1.85 ± 0.74 % dose/g; Biodistribution: Muscle (2 hr): 0.44 ± 0.19 % dose/g; Biodistribution: Skin (2 hr): 1.32 ± 0.41 % dose/g; Biodistribution: Spleen (2 hr): 1.27 ± 0.24 % dose/g; Biodistribution: Thyroid (2 hr): 215.05 ± 74.59 % dose/g |
| CN(C)c1ccc(/C=C/c2cnc(OCCO)c(I)c2)cc1 [[^125I]16a, (E)-[5-Iodo-6-(2-hydroxyethoxy)pyridin-3-yl]-2-(4-dimethylaminophenyl)-ethylene] | 2.71 ± 0.07 % dose/g | 5.43 ± 0.85 % dose/g | 10.24 ± 0.45 % dose/g | 14.25 ± 1.98 % dose/g | 19.12 ± 2.68 % dose/g | 9.41 ± 0.56 % dose/g | 0.71 ± 0.46 % dose/g | 0.46 ± 0.13 % dose/g | 4.40 ± 1.89 % dose/g | 4.15 ± 0.43 % dose/g | 2.24 ± 0.38 % dose/g | 3.56 ± 0.32 % dose/g | 1.93 ± 0.27 % dose/g | 4.19 ± 0.45 % dose/g | 12.38 ± 1.29 % dose/g | 3.02 ± 0.38 % dose/g | 1.05 ± 0.20 % dose/g | 1.18 ± 0.26 % dose/g | 1.94 ± 0.19 % dose/g | 11.21 ± 7.88 % dose/g | Biodistribution: Blood (1 hr): 2.18 ± 0.66 % dose/g; Biodistribution: Brain (1 hr): 1.32 ± 0.00 % dose/g; Biodistribution: Heart (1 hr): 1.12 ± 0.02 % dose/g; Biodistribution: Kidney (1 hr): 2.49 ± 0.33 % dose/g; Biodistribution: Liver (1 hr): 6.22 ± 0.96 % dose/g; Biodistribution: Lung (1 hr): 1.98 ± 0.21 % dose/g; Biodistribution: Muscle (1 hr): 0.55 ± 0.03 % dose/g; Biodistribution: Skin (1 hr): 1.16 ± 0.00 % dose/g; Biodistribution: Spleen (1 hr): 1.32 ± 0.10 % dose/g; Biodistribution: Thyroid (1 hr): 59.13 ± 6.26 % dose/g; Biodistribution: Blood (2 hr): 1.01 ± 0.02 % dose/g; Biodistribution: Brain (2 hr): 0.46 ± 0.05 % dose/g; Biodistribution: Heart (2 hr): 0.62 ± 0.12 % dose/g; Biodistribution: Kidney (2 hr): 1.48 ± 0.20 % dose/g; Biodistribution: Liver (2 hr): 4.87 ± 0.46 % dose/g; Biodistribution: Lung (2 hr): 1.00 ± 0.15 % dose/g; Biodistribution: Muscle (2 hr): 0.22 ± 0.04 % dose/g; Biodistribution: Skin (2 hr): 0.40 ± 0.05 % dose/g; Biodistribution: Spleen (2 hr): 0.80 ± 0.11 % dose/g; Biodistribution: Thyroid (2 hr): 24.81 ± 0.62 % dose/g |
